Measurements from patent US20060079453A1, “Hla binding peptides and their uses” (priority 2002, published 2006).
Where two headings read alike, the source gives them in different places. No end group written: not given here.

How the values were obtained:
Test in all cases: biochemical
Type in all cases: binding
HLA-A*0206 = HLA-A*0206 (Homo sapiens, UniProt P04439, D140Y/D185E/D98H/E176V/E277Q/F33Y/G131W/G231S/I119V/I121R/I166T/I218V/L300P/L318F/N151K/N90K/P208A/P217A/Q86G/Q94H/R138H/R169H/T345S)
HLA-A*0203 = HLA-A*0203 (Homo sapiens, UniProt P04439, A173T/D140Y/D185E/D98H/E277Q/G131W/G231S/I119V/I121R/I166T/I218V/L180W/L300P/L318F/N151K/N90K/P208A/P217A/Q86G/Q94H/R138H/R169H/T345S)
HLA-A*0202 = HLA-A*0202 (Homo sapiens, UniProt P04439, D140Y/D185E/D98H/E176V/E277Q/G131W/G231S/I119L/I121R/I166T/I218V/L180W/L300P/L318F/N151K/N90K/P208A/P217A/Q67R/Q86G/Q94H/R138H/R169H/T345S)
HLA-A*6802 = HLA-A*6802 (Homo sapiens, UniProt P04439, A269V/D140Y/D185E/E176V/E277Q/E87N/F33Y/G231S/I121R/I166T/I218V/L180W/L300P/L318F/N151K/P208A/P217A/Q86R/R138H/R169H/S129P/T345S/V36M)
HLA-A*0201 = HLA-A*0201 (Homo sapiens, UniProt P04439, D140Y/D185E/D98H/E176V/E277Q/G131W/G231S/I119V/I121R/I166T/I218V/L300P/L318F/N151K/N90K/P208A/P217A/Q86G/Q94H/R138H/R169H/T345S)
[1] = A*0206 binding affinity (expressed as an IC50)
[2] = A*0203 binding affinity (expressed as an IC50)
[3] = A*0202 binding affinity (expressed as an IC50)
[4] = A*6802 binding affinity (expressed as an IC50)
[5] = A*0201 binding affinity (expressed as an IC50)

Row | Molecule | IC50 (HLA-A*0206; [1]) | IC50 (HLA-A*0203; [2]) | IC50 (HLA-A*0202; [3]) | IC50 (HLA-A*6802; [4]) | IC50 (HLA-A*0201; [5]) | also measured
1 | ELVSEFSRV | 197 nM | 53 nM | 969 nM | 23 nM | 8180 nM | –
2 | LLYSKKRQEIL | – | – | – | – | – | IC50 (HLA-A*0206): > 8560 nM; IC50 (HLA-A*0203): 1570 nM; IC50 (HLA-A*6802): > 14300 nM; IC50 (HLA-A*0201): > 38200 nM
3 | YLLTGPGPGI | 60 nM | 59 nM | 15 nM | 5680 nM | 42 nM | –
4 | IISAVVGFL | 234 nM | 4.8 nM | 1 nM | 77 nM | 747 nM | –
5 | FVLSLGIHV | 131 nM | 2820 nM | 399 nM | – | 45 nM | –
6 | MTSNPPVPV | 81 nM | 0.8 nM | 29 nM | 1.1 nM | 22 nM | –
7 | TLGPGPGHL | 12100 nM | 66 nM | 35 nM | 27900 nM | 15000 nM | –
8 | YLGPGPGAGI | 548 nM | 4.2 nM | 1 nM | 315 nM | 161 nM | –
9 | FLKEKGGLDGV | – | – | – | – | – | IC50 (HLA-A*0206): 3210 nM; IC50 (HLA-A*0203): 11 nM; IC50 (HLA-A*0202): 3.7 nM; IC50 (HLA-A*6802): 3810 nM; IC50 (HLA-A*0201): 332 nM
10 | VLAKEGPGPGL | 59000 nM | 37 nM | 6.9 nM | 51000 nM | 1890 nM | –
11 | YQDPQNYEL | 52 nM | – | 18 nM | 167000 nM | 79 nM | –
12 | LQLPPLERV | – | – | – | – | – | IC50 (HLA-A*0206): 203 nM; IC50 (HLA-A*0203): 13500 nM; IC50 (HLA-A*0202): 7710 nM; IC50 (HLA-A*0201): 7950 nM
13 | MTSDPPIPV | – | – | – | – | – | IC50 (HLA-A*0206): 587 nM; IC50 (HLA-A*0203): 0.45 nM; IC50 (HLA-A*0202): 13 nM; IC50 (HLA-A*0201): 107 nM
14 | VTAKELKFV | 137 nM | 40 nM | 2690 nM | – | 7140 nM | –
15 | EILDLWVYHV | – | – | – | – | – | IC50 (HLA-A*0206): 2230 nM; IC50 (HLA-A*0203): 1870 nM; IC50 (HLA-A*0202): 569 nM; IC50 (HLA-A*6802): 163 nM; IC50 (HLA-A*0201): 496 nM
16 | IISAVVGIV | 958 nM | 20 nM | 15 nM | 390 nM | 712 nM | –
17 | AMAKAAAAT | 37000 nM | 84 nM | – | > 26700 nM | 15100 nM | –
18 | VLFLQMMNV | 9.5 nM | 2.7 nM | 1.8 nM | 323 nM | 31 nM | –
19 | IVYSAHDTTV | 356 nM | – | 91 nM | 737 nM | 7640 nM | –
20 | VLAEAMSQI | – | – | – | – | – | IC50 (HLA-A*0206): 70 nM; IC50 (HLA-A*0203): 0.87 nM; IC50 (HLA-A*0202): 0.15 nM; IC50 (HLA-A*0201): 71 nM
21 | MMIMIKFMGV | 109 nM | 25 nM | 19 nM | 39 nM | 123 nM | –
22 | LLGPGPGV | 93 nM | 123 nM | 49 nM | 5620 nM | 25 nM | –

Row | Molecule | IC50 (HLA-A*0206; [1]) | IC50 (HLA-A*0203; [2]) | IC50 (HLA-A*0202; [3]) | IC50 (HLA-A*6802; [4]) | IC50 (HLA-A*0201; [5]) | also measured
23 | RLDILDLWV | – | – | – | – | – | IC50 (HLA-A*0206): 2640 nM; IC50 (HLA-A*0203): 1640 nM; IC50 (HLA-A*6802): > 17800 nM; IC50 (HLA-A*0201): 43 nM
24 | YLLGPGPGGI | 89 nM | 3.3 nM | 12 nM | 2060 nM | 180 nM | –
25 | KITPLCVTL | 59 nM | 528 nM | 36 nM | 883 nM | 461 nM | –
26 | FLVFLVFSNV | 232 nM | – | – | 5390 nM | 269 nM | –
27 | QLVFGPGPGEV | 4070 nM | 50 nM | – | 447 nM | 2940 nM | –
28 | KLTPLCVAL [KLTPLCVAL] | – | – | – | – | – | IC50 (HLA-A*0206): 11 nM; IC50 (HLA-A*0203): 54 nM; IC50 (HLA-A*0202): 2.3 nM; IC50 (HLA-A*0201): 209 nM
29 | PVLPIFFCV | 22 nM | – | 3140 nM | – | 8.7 nM | –
30 | KLTPLCVTM | 197 nM | – | 3.6 nM | 6290 nM | 340 nM | –
31 | QMTFLCVQM | 232 nM | – | 40 nM | – | 3150 nM | –
32 | QLVFGGPGPGV | 3210 nM | – | 96 nM | 1320 nM | 2150 nM | –
33 | CC[C@H](C)[C@H](NC(=O)[C@H](CC(=O)O)NC(=O)[C@H](CCC(N)=O)NC(=O)[C@H](CC(C)C)NC(=O)[C@@H](N)[C@@H](C)O)C(=O)N[C@H](C(=O)N[C@@H](CC(C)C)C(=O)N[C@@H](Cc1c[nH]cn1)C(=O)N[C@@H](CC(C)C)C(=O)O)C(C)C | 781 nM | 46 nM | 4.4 nM | – | 22 nM | –
34 | CC[C@H](C)[C@H](NC(=O)[C@H](C)NC(=O)[C@H](CO)NC(=O)[C@@H](NC(=O)[C@H](Cc1ccccc1)NC(=O)[C@H](CCC(N)=O)NC(=O)[C@H](C)NC(=O)[C@H](CC(C)C)NC(=O)[C@H](CC(C)C)NC(=O)[C@@H](N)Cc1ccccc1)[C@@H](C)O)C(=O)O | 148 nM | 4.8 nM | 1.9 nM | – | 65 nM | –
35 | CC(C)C[C@H](NC(=O)[C@@H](NC(=O)[C@@H](NC(=O)[C@H](Cc1ccccc1)NC(=O)[C@H](CCCCN)NC(=O)[C@H](CC(C)C)NC(=O)[C@H](CCC(=O)O)NC(=O)[C@H](CCCCN)NC(=O)[C@H](C)NC(=O)[C@H](CC(C)C)NC(=O)[C@@H](N)C(C)C)C(C)C)[C@@H](C)O)C(=O)O | 5170 nM | – | 23 nM | – | 1300 nM | –
36 | FLFLLYILFL | 2110 nM | 2010 nM | – | 8250 nM | 2830 nM | –
37 | FLKEPVHGV | – | – | – | – | – | IC50 (HLA-A*0206): 140 nM; IC50 (HLA-A*0203): 1.9 nM; IC50 (HLA-A*0202): 0.28 nM; IC50 (HLA-A*0201): 44 nM
38 | FLKEKGGLEGV | – | – | – | – | – | IC50 (HLA-A*0206): 739 nM; IC50 (HLA-A*0203): 6.8 nM; IC50 (HLA-A*0202): 3.5 nM; IC50 (HLA-A*0201): 322 nM
39 | AXAKAAAAL | – | – | – | – | – | IC50 (HLA-A*0206; read-out: A*0206 binding affinity (expressed as an IC50)): 37000 nM; IC50 (HLA-A*0203; read-out: A*0203 binding affinity (expressed as an IC50)): 3300 nM; IC50 (HLA-A*6802; read-out: A*6802 binding affinity (expressed as an IC50)): > 11400 nM; IC50 (HLA-A*0201; read-out: A*0201 binding affinity (expressed as an IC50)): > 50000 nM
40 | ILAEAMASA | 6.8 nM | 0.82 nM | 0.72 nM | – | 22 nM | –
41 | KLGSLQYL | – | – | – | – | – | IC50 (HLA-A*0206): 9010 nM; IC50 (HLA-A*0202): 14 nM; IC50 (HLA-A*6802): > 19500 nM; IC50 (HLA-A*0201): 1860 nM
42 | NQMIFVSSI | 14 nM | 3.6 nM | 21 nM | – | 250 nM | –
43 | FLGPGPGPSV | 55 nM | 2.5 nM | 0.8 nM | – | 17 nM | –
